{"source": "patent US11912716B2", "about": "(priority 2018, dated 2024)", "key": {"[1]": {"test_system": "morphine-dependent animals", "test": "naloxone-precipitated morphine-withdrawal jumping (Example 10)", "assay_type": "in vivo, Kunming mice"}, "[2]": {"test_system": "morphine-induced conditioned place preference behavior in rats", "test": "morphine-induced conditioned place preference behavior, single oral administration before test (Example 12)", "assay_type": "in vivo, SD rats", "details": "70 mg/kg single oral dose 60 minutes before test, morphine 10 mg/kg s.c. for four days"}, "[3]": {"test_system": "formation of conditioned place preference induced by morphine in rats", "test": "formation of conditioned place preference induced by morphine, concomitant administration (Example 13)", "assay_type": "in vivo, SD rats", "details": "70 mg/kg oral 30 minutes before each morphine injection (10 mg/kg s.c.), four consecutive days"}, "[4]": {"test_system": "morphine-dependent mice", "test": "morphine-induced physical dependence, withdrawal jumping (Example 15)", "assay_type": "in vivo, Kunming mice", "details": "1 g/kg, 3 hours before naloxone"}, "[5]": {"test_system": "SD rats", "test": "addictive potential: induction of conditioned place preference (Example 14)", "details": "for CPP SCORE: morphine 10 mg/kg s.c. daily for four consecutive days, hydrochloride"}, "[6]": {"details": "0.125 g/kg intragastric, 1 hour after administration"}, "[7]": {"details": "0.25 g/kg intragastric, 1 hour after administration"}, "[8]": {"details": "0.5 g/kg intragastric, 1 hour after administration"}, "[9]": {"details": "0.5 g/kg intragastric, 3 hours after administration"}}, "data": [{"smiles": "CC(=O)O[C@H]1[C@H](OC(C)=O)[C@H]([C@@](C)(O)CC[C@@H]2OC(C)(C)[C@H]3CC[C@]2(C)O3)[C@@]2(C)CC[C@@H]3OC(C)(C)[C@H](OC(C)=O)CC[C@@]3(C)[C@H]12", "note": "[3,12,13-triacetyl limaxol A, (3R,5aS,7aS,8R,9R,10R,10aR,10bS)-dodecahydro-8-((S)-2-hydroxy-4-((1S,2S,5R)-1,4,4-trimethyl-3,8-dioxa-bicyclo[3.2.1]octan-2-yl)butan-2-yl)-4,4,7a,10b-tetramethyl-1H-indeno[5,4-b]oxepine-3,9,10-triol triacetate]", "values": [{"measurement": "% Inhibition of morphine-withdrawal jumping", "setting": "[1]; [6]", "result": "3.0 ± 12.2", "unit": "%"}, {"measurement": "Jumping times (Mean ± SEM)", "setting": "[1]; [6]", "result": "33.5 ± 4.1"}, {"measurement": "% Inhibition of morphine-withdrawal jumping", "setting": "[1]; [7]", "result": "21.1 ± 28.2", "unit": "%"}, {"measurement": "Jumping times (Mean ± SEM)", "setting": "[1]; [7]", "result": "27.5 ± 9.4"}, {"measurement": "% Inhibition of morphine-withdrawal jumping", "setting": "[1]; [8]", "result": "48.2 ± 7.5", "unit": "%"}, {"measurement": "Jumping times (Mean ± SEM)", "setting": "[1]; [8]", "result": "18.5 ± 2.4"}, {"measurement": "% Inhibition of morphine-withdrawal jumping", "setting": "[1]; [9]", "result": "45.0 ± 17.0", "unit": "%"}, {"measurement": "Jumping times (Mean ± SEM)", "setting": "[1]; [9]", "result": "16.7 ± 4.9"}, {"measurement": "CPP SCORE", "setting": "[2]; listed as Triacetyl limaxol A", "result": "318.5 ± 90.9", "unit": "n = 7 s"}, {"measurement": "CPP SCORE", "setting": "[2]; listed as triacetyl limaxol A", "result": "318.5 ± 90.9", "unit": "s"}, {"measurement": "CPP SCORE", "setting": "[3]; listed as Triacetyl limaxol A", "result": "223.8 ± 34.0", "unit": "n = 6 s"}, {"measurement": "CPP SCORE", "setting": "[3]; listed as triacetyl limaxol A", "result": "318.5 ± 90.9", "unit": "s"}, {"measurement": "Inhibition of morphine-withdrawal jumping", "setting": "[4]", "result": 43.13, "unit": "%"}, {"measurement": "Jumping times (Mean ± SEM)", "setting": "[4]", "result": "21.7 ± 6.9"}]}, {"smiles": "CC(=O)O[C@H]1[C@H](OC(C)=O)[C@H]([C@@](C)(O)CC[C@]2(C)OC(C)(C)[C@H]3CC[C@]2(C)O3)[C@@]2(C)CC[C@@H]3OC(C)(C)[C@H](O)CC[C@@]3(C)[C@H]12", "note": "[limaxol A, reference compound]", "values": [{"measurement": "Inhibition of morphine-withdrawal jumping", "setting": "[4]", "result": 21.26, "unit": "%"}, {"measurement": "Jumping times (Mean ± SEM)", "setting": "[4]", "result": "30.0 ± 9.7"}]}, {"smiles": "CCC(=O)C(CC(C)N(C)C)(c1ccccc1)c1ccccc1", "note": "(stereo not drawn) [methadone, reference compound]", "values": [{"measurement": "Jumping times (Mean ± SEM)", "setting": "[1]; methadone 20 mg/kg intragastric, 1 hour before naloxone, jumpings within 30 minutes", "result": "33.8 ± 3.3"}, {"measurement": "withdrawal jumping symptoms versus morphine model group (in words)", "setting": "[1]; methadone 20 mg/kg, 1 hour after administration", "result": "significantly reduced"}]}, {"smiles": "CN1CC[C@]23c4c5ccc(O)c4O[C@H]2[C@@H](O)C=C[C@H]3[C@H]1C5.Cl", "note": "[morphine, morphine hydrochloride]", "values": [{"measurement": "induction of conditioned place preference (in words)", "setting": "[5]; morphine 10 mg/kg s.c.", "result": "induced conditioned place preference behavior"}, {"measurement": "CPP SCORE", "setting": "[5]", "result": "208.3 ± 16.2", "unit": "s"}, {"measurement": "CPP SCORE", "setting": "[5]; listed as Morphine", "result": "208.3 ± 16.2", "unit": "n = 10 s"}]}]}
